Measured values: EP0534511A1, “HIV protease inhibitors useful for the treatment of aids” (MERCK & CO. INC., priority 1991, dated 1993)
pIC50: −log10 of the molar value.

Target: T1, HIV protease (Human immunodeficiency virus type 1 group M subtype B, UniProt P04585)
T1 construct: the protease expressed in Eschericia coli; made in house; host or cells: Escherichia coli
Assay: Assay for Inhibition of Microbial Expressed Viral Protease
Assay type: biochemical
Settings: protease expressed in Eschericia coli; peptide substrate Val-Ser-Gln-Asn-(betanapthyl)Ala-Pro-Ile-Val 0.5 mg/mL; 50 mM Na acetate, pH 5.5, 30°C, 1 hour; HPLC; read-out: IC₅₀
Procedure: Assay for Inhibition of Microbial Expressed Viral Protease
Inhibition studies of the reaction of the protease expressed in Eschericia coli with a peptide substrate [Val-Ser-Gln-Asn-(betanapthyl)Ala-Pro-Ile-Val, 0.5 mg/mL at the time the reaction is initiated] were in 50 mM Na acetate, pH 5.5, at 30°C for 1 hour. Various concentrations of inhibitor in 1.0 ul DMSO were added to 25 ul of the peptide solution in water. The reaction is initiated by the addition of 15 ul of 0.33 nM protease (0.11 ng) in a solution of 0.133 M Na acetate pH 5.5 and 0.26% bovine serum albumin. The reaction was quenched with 160 ul of 5% phosphoric acid. Products of the reaction were separated by HPLC (VYDAC wide pore 5 cm C-18 reverse phase, acetonitrile gradient, 0.1% phosphoric acid). The extent of inhibition of the reaction was determined from the peak heights of the products.

Question: O=C(N[C@@H](CC1CCCCC1)[C@@H](O)C[C@@H](Cc1ccccc1)C(=O)N[C@H]1c2ccccc2C[C@H]1O)O[C@H]1CCOC1 [C, N-[(2R)-hydroxy-1(S)-indanyl]-5(S)-(3(S)-tetrahydrofuranyloxycarbonylamino)-4(S)-hydroxy-6-cyclohexyl-2(R)-phenylmethyl hexamamide] was tested. Which pIC50 did it give?
Answer: The pIC50 was 10.40.

Question: With CC(C)[C@H](C[C@H](O)[C@H](CC1CCCCC1)NC(=O)O[C@H]1CCOC1)C(=O)N[C@H]1c2ccccc2C[C@H]1O [A, N-[(2R)-hydroxy-1(S)-indanyl]-5(S)-(3(S)-tetrahydrofuranyloxycarbonylamino)-4(S)-hydroxy-6-cyclohexyl-2(R)-isopropyl hexanamide] as the compound, how does the pIC50 read?
Answer: The pIC50 was 9.43.
